Measured values reported in patent US4710469A, “Novel phosphotyrosyl protein phosphatase” (Merck & Co., Inc., priority 1986, dated 1987).
Like-named read-outs stand apart in the source and are kept apart here.

Columns and labels:
[1] = tested on: Purified phosphotyrosyl protein phosphatase from human placental membranes; format: biochemical
Experimental: (§1) Human placental alkaline phosphatase and prostatic phosphatase were obtained commercially. Alkaline phosphatase was assayed in a reaction mixture containing 50 mM glycine NaOH, pH 10, MgCl2 and 1 mM PNPP; prostatic acid phosphatase was assayed in a reaction mixture containing 100 mM acetate, pH 5, 0.1 mM PNPP, and purified phosphotyrosyl protein phosphatase was assayed in 100 mM acetate, pH 5, 0.8 mM PNPP, 0.2 mg/ml BSA and 5 mM DTT. All assays were performed at 30°.
(§2) p-Nitrophenylphosphatase activity was determined in a final volume of […] containing 100 mM acetate, pH 5, 5 mM DTT, 2.5 mg/ml BSA and 1 mM PNPP. The reaction was carried out at 30° C. and terminated with 0.5 ml of 0.2N NaOH. Alkaline PNPP phosphatase activity was similarly determined except that 50 mM glycine NaOH, pH 10, was used as buffer and 10 mM MgCl2 was included in the reaction mixture. Absorption at 410 nm wavelength was recorded on a Gilson spectrophotometer. Units of phosphatase activity were calculated with a millimolar extinction coefficient of 17.5 for p-nitrophenol at 410 nm and pH 11.

[2] = target: T1, Human placental alkaline phosphatase (obtained commercially) (Homo sapiens, UniProt P05187); test: biochemical; settings: for inhibition at 10000 µM: compound at 10 mM, read-out: % change of activity; for inhibition at 10000 µM / % change of activity: 1 mM PNPP, glycine NaOH pH 10, MgCl2, 30°; for % change of activity: compound at 10 μM
T1 construct: purchased Worthington Biochem; host or cells: human placenta
T1 sequence (P05187 23-506 limits assumed): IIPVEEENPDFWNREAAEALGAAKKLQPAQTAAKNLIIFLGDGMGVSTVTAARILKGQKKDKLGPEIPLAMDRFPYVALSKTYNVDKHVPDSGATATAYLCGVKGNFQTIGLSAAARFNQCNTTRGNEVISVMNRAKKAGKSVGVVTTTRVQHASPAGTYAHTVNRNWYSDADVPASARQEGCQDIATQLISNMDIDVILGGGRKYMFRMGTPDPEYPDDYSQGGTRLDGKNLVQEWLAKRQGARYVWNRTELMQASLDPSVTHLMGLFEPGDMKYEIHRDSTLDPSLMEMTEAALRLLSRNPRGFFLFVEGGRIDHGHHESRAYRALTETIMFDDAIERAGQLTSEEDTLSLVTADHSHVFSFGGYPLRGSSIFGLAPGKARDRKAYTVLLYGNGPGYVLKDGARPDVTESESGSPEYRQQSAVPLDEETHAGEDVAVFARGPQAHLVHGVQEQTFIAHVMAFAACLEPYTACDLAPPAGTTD
Experimental: as §1, §2

[3] = target: T2, Human prostatic acid phosphatase (obtained commercially) (Homo sapiens, UniProt P15309); test: biochemical; settings: for inhibition at 10000 µM: compound at 10 mM, read-out: % change of activity; for inhibition at 10000 µM / % change of activity: 0.1 mM PNPP, 100 mM acetate pH 5, 30°; for % change of activity: compound at 10 μM
T2 construct: purchased Sigma; host or cells: human semen
T2 sequence (P15309 33-386): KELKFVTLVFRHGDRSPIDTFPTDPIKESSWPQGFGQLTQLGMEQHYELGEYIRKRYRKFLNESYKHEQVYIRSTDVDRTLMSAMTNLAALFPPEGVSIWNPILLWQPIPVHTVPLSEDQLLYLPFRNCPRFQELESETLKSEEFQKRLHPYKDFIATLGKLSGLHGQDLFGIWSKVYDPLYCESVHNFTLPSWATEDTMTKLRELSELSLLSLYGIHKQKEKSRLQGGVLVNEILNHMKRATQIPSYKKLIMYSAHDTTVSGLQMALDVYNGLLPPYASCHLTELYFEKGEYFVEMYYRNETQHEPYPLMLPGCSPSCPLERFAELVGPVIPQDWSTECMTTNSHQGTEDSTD
Experimental: as §1, §2

[4] = tested on: Purified phosphotyrosyl protein phosphatase from human placental membranes; format: biochemical; remark: listed apart in the source
Experimental: Phosphotyrosine phosphatase activity was measured by the release of ^32 Pi from ^32 P-Tyr-angiotensin II in a […] reaction mixture containing 0.1M acetate, pH 5, 5 mM DTT, 2.5 mg/ml BSA and 0.05 mM ^32 Pi of ^32 P-Tyr-angiotensin II. After incubation at 30° for 30 minutes, the reaction was terminated by the addition of […] of 10% TCA. 0.2 ml of 1.25 mM KH2 PO4 in 1N H2 SO4 was added as carrier. 0.1 ml of 5% ammonium molybdate was then added. After extraction with 0.5 ml of 1:1 isobutanol:benzene, 0.25 ml of the upper phase was taken and mixed with 10 ml Aquasol II to be counted in a packard scintillation counter.

[5] = pH 10, read-out: % change of activity
[6] = pH 5, read-out: % change of activity
[7] = compound at 10 mM, 0.8 mM PNPP, 100 mM acetate pH 5, 0.2 mg/ml BSA, 5 mM DTT, 30°
[8] = compound at 10 μM, 0.8 mM PNPP, 100 mM acetate pH 5, 0.2 mg/ml BSA, 5 mM DTT, 30°

Compound: O=C(O)CN(CCN(CC(=O)O)CC(=O)O)CC(=O)O [EDTA, Ethylene diamine tetraacetate]
- stimulation of PNPP phosphatase activity [1]: 79%
- % change of activity ([1]; purified phosphotyrosyl protein phosphatase, pH 5, 20000 µM): +78.9%
- inhibition at 20000 µM [2, 5]: 94%
- effect on PNPP phosphatase activity [3]: not affected
- inhibition at 20000 µM [3, 6]: 2.2%
- stimulation of 32P-Tyr-angiotensin II phosphatase activity [4]: 29.8%

Compound: O=C(O)[C@H](O)[C@@H](O)C(=O)O [L-tartrate]
- effect on PNPP phosphatase activity [1]: nearly completely inhibited
- % change of activity ([1]; purified phosphotyrosyl protein phosphatase, pH 5, 5000 µM): -98.1%
- inhibition at 5000 µM [2, 5]: 10.4%
- inhibition at 5000 µM [3, 6]: 97.6%
- inhibition of 32P-Tyr-angiotensin II phosphatase activity [4]: 27.6%

Compound: N[C@@H](COP(=O)(O)O)C(=O)O [p-serine, phosphoserine]
- % change of activity [1, 7]: +73.4%
- stimulation of PNPP phosphatase activity ([1]; text summary of Table I, phosphoserine 10 mM per table): 73%
- inhibition at 10000 µM [2]: 92.6%
- inhibition at 10000 µM [3]: 19%
- effect on PNPP phosphatase activity ([3]; concentration not given): slightly inhibited
- stimulation of 32P-Tyr-angiotensin II phosphatase activity ([4]; compound at 10 mM): 4.3%

Compound: N[C@@H](Cc1ccc(OP(=O)(O)O)cc1)C(=O)O [p-tyrosine, phosphotyrosine]
- % change of activity [1, 7]: -21.6%
- effect on PNPP phosphatase activity ([1]; concentration not given): slightly inhibited
- inhibition at 10000 µM [2]: 85.6%
- inhibition at 10000 µM [3]: 24.4%
- inhibition of 32P-Tyr-angiotensin II phosphatase activity ([4]; compound at 10 mM): 11.5%

Compound: [O]=[V]([O-])([O-])[O-] [vanadate]
- % change of activity [1, 8]: -38.2%
- effect on PNPP phosphatase activity ([1]; compound at 100 μM): nearly completely inhibited
- % change of activity [2]: -18.3%
- % change of activity [3]: -87.8%
- inhibition of 32P-Tyr-angiotensin II phosphatase activity ([4]; compound at 10 μM): 46.4%

Compound: molybdate
- effect on PNPP phosphatase activity ([1]; compound at 10 μM): nearly completely inhibited
- % change of activity [1, 8]: -96.4%
- % change of activity [2]: 0%
- % change of activity [3]: -95.0%
- inhibition of 32P-Tyr-angiotensin II phosphatase activity ([4]; compound at 10 μM): 20.8%
